Values of other authors as cited in patent US7261867B1 (Eastman Kodak Company, priority 2006, dated 2007).

Experiments:
Conditions in all cases: 0.5% concentration in polymethylmethacrylate bone cement
Pseudomonas aeruginosa = tested on: Pseudomonas aeruginosa
Escherichia coli = tested on: Escherichia coli
Staphylococcus aureus = tested on: Staphylococcus aureus

Measured: inhibition of bacterial growth

[Cl][Ag] [Silver chloride]
significantly inhibit: all assays above

O=S(=O)([O-])[O-].[Ag+].[Ag+] [silver sulphate]
significantly inhibit: all assays above

silver oxide
significantly inhibit: all assays above
